In patent publication US20250236611A1, “PYRAZOLE COMPOUNDS AND USES THEREOF” (ALCON INC., priority 2021, published 2025):

Key:
Format in all cases: biochemical
Conditions in all cases: 10 nM JAK enzyme, 800 nM Abl peptide, room temperature 75 min
JAK3 = target: T1, JAK3 (Homo sapiens, UniProt P52333); test: JAK assay (KINASE-GLO luminescent kinase assay), JAK3
T1 sequence (P52333 1-1124): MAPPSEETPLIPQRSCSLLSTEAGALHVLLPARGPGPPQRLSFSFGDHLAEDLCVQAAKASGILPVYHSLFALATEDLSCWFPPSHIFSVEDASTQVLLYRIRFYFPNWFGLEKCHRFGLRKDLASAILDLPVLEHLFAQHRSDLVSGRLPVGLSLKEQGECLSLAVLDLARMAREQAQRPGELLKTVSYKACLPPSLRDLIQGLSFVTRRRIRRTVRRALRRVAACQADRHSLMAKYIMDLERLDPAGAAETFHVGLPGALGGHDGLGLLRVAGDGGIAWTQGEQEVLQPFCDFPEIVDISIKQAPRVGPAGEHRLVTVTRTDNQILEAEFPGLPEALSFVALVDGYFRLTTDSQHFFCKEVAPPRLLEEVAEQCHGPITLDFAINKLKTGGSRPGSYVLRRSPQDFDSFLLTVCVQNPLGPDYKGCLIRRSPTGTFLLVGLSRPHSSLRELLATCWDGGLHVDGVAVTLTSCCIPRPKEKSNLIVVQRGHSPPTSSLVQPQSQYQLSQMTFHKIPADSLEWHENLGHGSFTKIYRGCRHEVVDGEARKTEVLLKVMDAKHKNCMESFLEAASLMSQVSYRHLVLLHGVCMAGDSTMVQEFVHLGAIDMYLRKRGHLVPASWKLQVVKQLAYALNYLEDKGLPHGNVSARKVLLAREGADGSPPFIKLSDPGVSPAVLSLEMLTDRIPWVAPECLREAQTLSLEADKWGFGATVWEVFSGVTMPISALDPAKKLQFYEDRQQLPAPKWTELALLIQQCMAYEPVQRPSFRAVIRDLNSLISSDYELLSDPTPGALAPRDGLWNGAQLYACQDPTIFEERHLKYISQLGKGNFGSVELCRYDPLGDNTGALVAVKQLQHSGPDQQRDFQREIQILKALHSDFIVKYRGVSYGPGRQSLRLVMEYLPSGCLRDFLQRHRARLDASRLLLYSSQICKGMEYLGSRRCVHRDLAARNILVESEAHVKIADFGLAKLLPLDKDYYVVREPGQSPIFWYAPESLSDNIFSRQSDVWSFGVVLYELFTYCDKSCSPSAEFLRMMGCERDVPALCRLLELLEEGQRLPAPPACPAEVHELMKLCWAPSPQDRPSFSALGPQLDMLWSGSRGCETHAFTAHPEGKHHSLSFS
How it was run: (§1)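 The 2× mix gave 10 nM kinase, 800 nM Abl peptide and 2 µM DTT, and ATP was added as a 4× stock (2 µM), in HEPES pH 7.5 buffer. Compounds ran as an 11-point series, 100 µM–10 pM final in 2.5% DMSO, for 75 min at RT. Remaining ATP was read by luminescence against DMSO control, and 4-parameter IC50s were converted to Ki by Cheng-Prusoff.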

JAK1 = JAK1 (Homo sapiens, UniProt P23458); test: JAK assay (KINASE-GLO luminescent kinase assay), JAK1
How it was run: as §1

TYK2 = TYK2 (Homo sapiens, UniProt P29597); test: JAK assay (KINASE-GLO luminescent kinase assay), TYK2
JAK2 = JAK2 (Homo sapiens, UniProt O60674); test: JAK assay (KINASE-GLO luminescent kinase assay), JAK2
How it was run: as §1

JAK1, sequence (P23458 whole entry): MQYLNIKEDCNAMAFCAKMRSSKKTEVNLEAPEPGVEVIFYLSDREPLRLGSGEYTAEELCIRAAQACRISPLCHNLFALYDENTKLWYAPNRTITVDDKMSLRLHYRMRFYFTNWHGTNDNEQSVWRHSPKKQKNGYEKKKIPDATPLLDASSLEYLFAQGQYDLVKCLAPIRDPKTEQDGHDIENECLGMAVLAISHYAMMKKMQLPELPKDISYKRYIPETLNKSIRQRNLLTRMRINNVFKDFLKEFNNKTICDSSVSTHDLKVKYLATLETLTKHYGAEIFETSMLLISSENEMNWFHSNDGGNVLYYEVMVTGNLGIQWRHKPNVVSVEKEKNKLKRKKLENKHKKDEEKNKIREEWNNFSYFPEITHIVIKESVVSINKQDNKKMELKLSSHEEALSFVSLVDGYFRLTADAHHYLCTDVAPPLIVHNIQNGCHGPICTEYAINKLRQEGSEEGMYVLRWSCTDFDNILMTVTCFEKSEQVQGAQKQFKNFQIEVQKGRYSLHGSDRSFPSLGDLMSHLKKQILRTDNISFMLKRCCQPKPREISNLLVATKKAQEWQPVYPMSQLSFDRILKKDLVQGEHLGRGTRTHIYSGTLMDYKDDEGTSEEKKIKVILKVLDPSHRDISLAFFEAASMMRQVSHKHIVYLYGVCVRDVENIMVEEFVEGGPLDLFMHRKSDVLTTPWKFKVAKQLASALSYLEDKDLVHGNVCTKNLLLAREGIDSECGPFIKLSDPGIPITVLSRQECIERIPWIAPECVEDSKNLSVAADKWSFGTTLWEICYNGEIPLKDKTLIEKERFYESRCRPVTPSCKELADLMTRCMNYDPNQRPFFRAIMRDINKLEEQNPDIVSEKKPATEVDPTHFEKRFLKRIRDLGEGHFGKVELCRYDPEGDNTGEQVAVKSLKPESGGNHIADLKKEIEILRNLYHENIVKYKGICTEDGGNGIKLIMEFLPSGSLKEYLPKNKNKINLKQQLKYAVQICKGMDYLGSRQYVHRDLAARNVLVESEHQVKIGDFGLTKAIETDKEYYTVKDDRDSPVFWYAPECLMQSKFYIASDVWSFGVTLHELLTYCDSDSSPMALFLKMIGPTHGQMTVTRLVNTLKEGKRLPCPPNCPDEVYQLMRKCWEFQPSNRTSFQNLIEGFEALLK
JAK2, sequence (O60674 whole entry): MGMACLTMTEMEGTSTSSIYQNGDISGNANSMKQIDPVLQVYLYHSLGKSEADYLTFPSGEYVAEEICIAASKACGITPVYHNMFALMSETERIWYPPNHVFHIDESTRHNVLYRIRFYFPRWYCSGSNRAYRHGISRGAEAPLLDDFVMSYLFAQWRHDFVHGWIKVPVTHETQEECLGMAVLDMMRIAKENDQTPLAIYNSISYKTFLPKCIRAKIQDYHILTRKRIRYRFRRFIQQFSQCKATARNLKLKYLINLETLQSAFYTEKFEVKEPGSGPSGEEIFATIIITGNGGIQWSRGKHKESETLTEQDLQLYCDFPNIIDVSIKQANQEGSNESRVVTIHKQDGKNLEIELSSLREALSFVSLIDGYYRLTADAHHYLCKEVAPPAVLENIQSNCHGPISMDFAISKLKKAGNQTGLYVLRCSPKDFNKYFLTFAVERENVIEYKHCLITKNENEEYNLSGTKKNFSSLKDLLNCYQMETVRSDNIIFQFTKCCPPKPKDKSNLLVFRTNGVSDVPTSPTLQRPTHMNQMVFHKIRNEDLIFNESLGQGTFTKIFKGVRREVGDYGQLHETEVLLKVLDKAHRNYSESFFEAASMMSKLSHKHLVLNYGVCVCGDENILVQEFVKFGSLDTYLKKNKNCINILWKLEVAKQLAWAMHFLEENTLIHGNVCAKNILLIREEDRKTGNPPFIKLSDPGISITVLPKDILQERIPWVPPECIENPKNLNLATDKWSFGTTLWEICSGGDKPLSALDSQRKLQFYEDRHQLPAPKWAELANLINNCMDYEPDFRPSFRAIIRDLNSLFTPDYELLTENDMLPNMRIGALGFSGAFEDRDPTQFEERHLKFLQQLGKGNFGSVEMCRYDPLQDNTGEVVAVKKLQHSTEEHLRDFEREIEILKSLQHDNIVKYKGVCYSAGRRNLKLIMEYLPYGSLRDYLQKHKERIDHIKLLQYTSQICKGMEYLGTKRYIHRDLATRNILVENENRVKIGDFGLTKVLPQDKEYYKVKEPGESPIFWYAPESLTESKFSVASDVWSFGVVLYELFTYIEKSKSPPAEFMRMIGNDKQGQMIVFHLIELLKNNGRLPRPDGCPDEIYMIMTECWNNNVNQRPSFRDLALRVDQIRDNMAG
TYK2, sequence (P29597 whole entry): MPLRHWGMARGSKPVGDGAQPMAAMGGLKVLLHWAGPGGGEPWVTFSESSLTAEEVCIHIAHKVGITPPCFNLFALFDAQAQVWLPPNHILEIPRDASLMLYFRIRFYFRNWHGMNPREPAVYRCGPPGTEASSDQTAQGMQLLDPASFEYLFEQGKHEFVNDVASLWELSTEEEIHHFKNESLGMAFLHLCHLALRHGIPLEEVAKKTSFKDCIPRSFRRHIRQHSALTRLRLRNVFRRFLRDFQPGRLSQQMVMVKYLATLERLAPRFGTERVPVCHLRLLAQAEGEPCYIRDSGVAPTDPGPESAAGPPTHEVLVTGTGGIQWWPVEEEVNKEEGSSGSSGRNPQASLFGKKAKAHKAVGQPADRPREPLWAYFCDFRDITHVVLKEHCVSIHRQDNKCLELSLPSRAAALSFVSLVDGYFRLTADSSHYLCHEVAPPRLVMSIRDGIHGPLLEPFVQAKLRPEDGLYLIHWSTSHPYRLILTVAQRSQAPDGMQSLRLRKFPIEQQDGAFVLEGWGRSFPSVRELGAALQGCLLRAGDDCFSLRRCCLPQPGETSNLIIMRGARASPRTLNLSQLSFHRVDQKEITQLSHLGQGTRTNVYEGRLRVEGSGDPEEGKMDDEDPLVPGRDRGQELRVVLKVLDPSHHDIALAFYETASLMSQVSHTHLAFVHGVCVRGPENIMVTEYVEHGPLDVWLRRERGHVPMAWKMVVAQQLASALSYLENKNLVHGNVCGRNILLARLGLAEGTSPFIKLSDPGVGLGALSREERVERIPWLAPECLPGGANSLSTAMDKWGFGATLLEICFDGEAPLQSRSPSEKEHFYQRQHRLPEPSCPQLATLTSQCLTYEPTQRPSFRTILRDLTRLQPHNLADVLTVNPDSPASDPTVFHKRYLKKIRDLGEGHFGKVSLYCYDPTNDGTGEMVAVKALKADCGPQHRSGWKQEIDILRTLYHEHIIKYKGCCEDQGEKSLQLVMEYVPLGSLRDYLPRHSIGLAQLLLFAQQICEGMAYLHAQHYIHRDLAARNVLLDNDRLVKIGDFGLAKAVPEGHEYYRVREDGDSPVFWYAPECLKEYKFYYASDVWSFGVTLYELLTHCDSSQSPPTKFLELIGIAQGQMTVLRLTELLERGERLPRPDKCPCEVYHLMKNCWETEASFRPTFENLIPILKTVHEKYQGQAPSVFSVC

Row | SMILES | IC50 (JAK3) | IC50 (JAK1) | IC50 (TYK2) | IC50 (JAK2)
1 | N#CCC1(Cn2cc(-c3ccnc(Nc4ccns4)n3)cn2)CC1 [N#CCC1(CC1)C[N]2C═C(C═N2)C3═CC═NC] | < 100 nM | < 100 nM | < 100 nM | < 10 nM
2 | N#CCC1(Cn2cc(-c3nc(Nc4ccns4)ncc3C3CC3)cn2)CC1 [N#CCC1(CC1)C[N]2C═C(C═N2)C3═C] | < 100 nM | < 100 nM | < 100 nM | < 10 nM
3 | NC(=O)CCn1cc(-c2nc(NC3CCNCC3(F)F)ncc2Cl)cn1 (stereo not shown) [NC(═O)CC[N]1C═C(C═N1)C2═C] | > 50000 nM | > 50000 nM | > 50000 nM | < 100000 nM
4 | N#CCCn1cc(-c2nc(Nc3ccc(C(=O)O)cc3)ncc2Cl)cn1 [OC(═O)C1═CC═C(NC2═NC(═C] | < 100 nM | < 10 nM | < 10 nM | < 10 nM
5 | N#CCC1(Cn2cc(-c3ccnc(Nc4cc(CO)ns4)n3)cn2)CC1 [OCC1═NSC(═C1)NC2═NC(═CC═N2)C3═C[N]] | < 100 nM | < 100 nM | < 10 nM | < 10 nM
6 | N#CCCn1cc(-c2nc(Nc3ccc(CCO)cc3)ncc2Cl)cn1 [OCCC1═CC═C(NC2═NC(═C] | < 100 nM | < 100 nM | < 10 nM | < 10 nM
7 | N#CCCn1cc(-c2ccnc(NC(=O)C3CC3)n2)cn1 [O═C(NC1═NC(═CC═N1)C2═C[N]] | > 50000 nM | < 100000 nM | < 100000 nM | < 100000 nM

More lines, now with the values ahead:

Row | IC50 (JAK3) | IC50 (JAK1) | IC50 (TYK2) | IC50 (JAK2) | SMILES
8 | < 100 nM | < 1000 nM | < 1000 nM | < 10 nM | FC(F)C1(Cn2cc(-c3nc(Nc4ccc5cnoc5c4)ncc3Cl)cn2)COC1 [FC(F)C1(COC1)C[N]2C═C(C═N2)C3═C]
9 | < 10 nM | < 100 nM | < 100 nM | < 10 nM | NCc1cccc(Nc2ncc(Cl)c(-c3cnn(CC4(CF)CC4)c3)n2)c1 [NCC1═CC═CC(═C1)NC2═NC(═C]
10 | < 1000 nM | < 1000 nM | < 1000 nM | < 10 nM | N#CCCn1cc(-c2nc(Nc3cccc(C(=O)O)c3)ncc2Cl)cn1 [OC(═O)C1═CC═CC(═C1)NC2═NC]
11 | < 1000 nM | < 100 nM | < 100 nM | < 10 nM | N#CC1(Cn2cc(-c3nc(Nc4ccc(C(=O)O)nc4)ncc3Cl)cn2)CC1 [OC(═O)C1═NC═C(NC2═NC(═C]
12 | < 10 nM | < 10 nM | < 10 nM | < 10 nM | OCC(O)c1cccc(Nc2ncc(Cl)c(-c3cnn(CC4(CF)CC4)c3)n2)c1 (stereo not shown) [OCC(O)C1═CC═CC(═C1)NC2═NC(═C]
13 | < 100 nM | < 100 nM | < 10 nM | < 10 nM | N#CCCn1cc(-c2nc(Nc3ccc(CCOP(=O)(O)O)cc3)ncc2Cl)cn1 [O[P](O)(═O)OCCC1═CC═C(NC2═NC(═C]
